Assay results reported in patent US20250025473A1 (priority 2021, published 2025).

Tests used:
[1] = tested on: phosphatidylserine (PtdS) and Akt; assay: Translocation of PtdS and Akt to the outer leaflet after HSV-2 (confocal, non-permeabilized); assay type: cell-based, human; conditions: 10 μM, HaCat, HSV-2(G)
HaCat cells [2] = assay: Cytotoxicity/viability, confluent HaCat cells; assay type: cell-based, human; conditions: 10 μM, fully confluent HaCat cells, up to 120 h
Method: (§1) Results are presented as mean±SEM odu as a percentage of the DMSO control (n=2 independent experiments each conducted in duplicate for C and 1 experiment conducted in duplicate for D). Results in B-D were compared by ANOVA, *p<0.05, **p<0.01, ***p<0.001, ****p<0.0001).
(§2) Cell proliferation and viability were determined using the Cell Titer 96® Aqueous One Solution and optical density was determined using a SpectraMax® M5e Molecular Devices multidetection microplate reader. […] The cells were then fixed and stained for activated caspases (red) and SYTOX Green (for integrity of plasma membrane) by Image-iT™ LIVE red Poly Caspase Detection kit. Nuclei were stained with Hoechst. Images were acquired by laser confocal microscope ZeissLive/DuoScan equipped with oil immersion objectives 63×1.1 and captured in an optical slice of 0.37 μm with appropriate filters. Alternatively, immunoblots were prepared and probed with antibodies to cleaved PARP-1 or cleaved caspase 8.

PDPK1 = target: T1, PDPK1 (Homo sapiens, UniProt O15530); assay: HotSpot in vitro kinase assay, PDPK1; assay type: biochemical
T1 construct: purchased Reaction Biology Corporation
T1 sequence (O15530 1-556): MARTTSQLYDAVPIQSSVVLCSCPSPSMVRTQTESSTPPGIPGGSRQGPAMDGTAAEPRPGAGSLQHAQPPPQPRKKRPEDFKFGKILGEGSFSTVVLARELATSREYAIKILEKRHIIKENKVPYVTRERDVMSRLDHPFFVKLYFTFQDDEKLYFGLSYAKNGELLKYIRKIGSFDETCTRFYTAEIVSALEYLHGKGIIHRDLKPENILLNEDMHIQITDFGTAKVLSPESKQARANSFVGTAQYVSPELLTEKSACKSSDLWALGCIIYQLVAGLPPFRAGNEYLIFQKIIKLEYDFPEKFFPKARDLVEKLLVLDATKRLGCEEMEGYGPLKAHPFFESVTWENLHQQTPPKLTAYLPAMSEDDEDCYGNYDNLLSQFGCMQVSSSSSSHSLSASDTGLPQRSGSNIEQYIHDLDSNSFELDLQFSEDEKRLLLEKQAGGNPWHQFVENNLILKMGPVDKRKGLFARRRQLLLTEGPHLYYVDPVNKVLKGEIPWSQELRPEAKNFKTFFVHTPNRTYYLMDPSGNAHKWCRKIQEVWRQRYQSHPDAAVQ

[3] = Parallel artificial membrane permeability assay (PAMPA); assay type: in vitro ADME; conditions: 100 μM
HSV-2(G) [4] = assay: Nuclear transport of VP16 (immunoblot of nuclear extracts); conditions: HaCat and primary vaginal cells, 1 h post-infection; CIMSS 10 μM, antibody 2 μg/ml
[5] = tested on: primary vaginal epithelial cells; assay: Proliferation and viability, primary vaginal epithelial cells; assay type: cell-based, human; conditions: 10 or 50 μM, about 50% confluent primary vaginal epithelial cells, up to 120 h
Method: as §1, §2

MDCK-MDR1 cells = conditions: 5 μM
[6] = tested on: phosphorylated Akt (pAkt T308); assay type: cell-based, human
Akt, PDPK1, PLCγ = assay: HSV-induced phosphorylation of Akt, PDPK1 and PLCγ (confocal, biotinylation of cell surface proteins); assay type: cell-based, human; conditions: 10 μM, HaCat
PLSCR1 [7] = assay type: cell-based, monkey; conditions: Vero, 30 minutes; drugs 10 μM each
intracellular Ca2+ = assay: Calcium kinetic measurements (Fura-2) after HSV exposure; assay type: cell-based, human; conditions: 10 μM, HaCat
Method: The cells were then washed, lysed and Western blots of cell lysates prepared and probed with a mAb to gD as a marker of cell-bound virus and anti-3-actin as a loading control. […] Representative responses are shown for the first 30 minutes (left) and the mean calcium released over the first 3 minutes and then the extended response in the first hour following viral exposure were calculated from 4 wells in 3 independent experiments, each containing 5×10^4 cells (right). Asterisks indicate statistically significant differences by ANOVA (*, p<0.05, ** p<0.01, *** p<0.001) relative to control cells (mock-infected, DMSO). […] Nuclei were stained blue with DAPI. Images are representative of 2 independent experiments. […] Nuclei are stained blue (DAPI). Images were obtained with ZeissLive/DuoScan (objective 100×1.4, bar=10 μm) are representative of 2 independent experiments; quantification is shown in FIG. 11.
The cells were then transferred to SpectraMax® MF^e temperature-regulated chamber at 37° C. […] An intracellular calibration was performed with each experiment by determining the fluorescence ratio (340:380) in the presence of Ca-free 10 mM K2EGTA buffer (Rmin) and 10 mM CaEGTA buffer containing 10 μM ionomycin (Rmax) (C-3008, Calcium Calibration Buffer Kit #1, Invitrogen Molecular Probes™).

AKT2 = target: T2, AKT2 (Homo sapiens, UniProt P31751); assay: HotSpot in vitro kinase assay, AKT2; assay type: biochemical
T2 construct: purchased Reaction Biology Corporation

HSV-2(G) [8] = assay: Synchronized HSV infection (entry kinetics) plaque assay; conditions: 10 μM, HaCat, 0.5, 1, 1.5 or 2 hours post-temperature shift
HaCat cells [9] = assay: Cell proliferation, ~50% confluent HaCat (Cell Titer 96 Aqueous One)
AKT1 = target: T3, AKT1 (Homo sapiens, UniProt P31749); assay: HotSpot in vitro kinase assay, AKT1; assay type: biochemical
T3 construct: purchased Reaction Biology Corporation

PLSCR1 [10] = assay: PLSCR1 phosphorylation after HSV-2 (immunoprecipitation/Western); assay type: cell-based, human; conditions: 10 μM, HaCat, 30 minutes

T3 sequence (P31749 whole entry): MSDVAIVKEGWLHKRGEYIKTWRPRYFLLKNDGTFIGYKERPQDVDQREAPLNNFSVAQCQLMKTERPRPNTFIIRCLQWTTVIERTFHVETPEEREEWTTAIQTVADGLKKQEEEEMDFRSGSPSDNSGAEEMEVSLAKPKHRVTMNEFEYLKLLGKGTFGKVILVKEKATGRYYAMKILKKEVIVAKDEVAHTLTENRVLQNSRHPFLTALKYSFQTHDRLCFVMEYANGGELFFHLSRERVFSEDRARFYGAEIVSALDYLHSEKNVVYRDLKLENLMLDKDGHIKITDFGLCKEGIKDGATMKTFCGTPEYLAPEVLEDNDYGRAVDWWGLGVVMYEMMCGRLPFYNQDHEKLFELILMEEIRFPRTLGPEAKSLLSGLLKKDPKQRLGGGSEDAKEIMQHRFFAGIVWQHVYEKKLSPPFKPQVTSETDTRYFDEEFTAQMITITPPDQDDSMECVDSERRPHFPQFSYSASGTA
T2 sequence (P31751 whole entry): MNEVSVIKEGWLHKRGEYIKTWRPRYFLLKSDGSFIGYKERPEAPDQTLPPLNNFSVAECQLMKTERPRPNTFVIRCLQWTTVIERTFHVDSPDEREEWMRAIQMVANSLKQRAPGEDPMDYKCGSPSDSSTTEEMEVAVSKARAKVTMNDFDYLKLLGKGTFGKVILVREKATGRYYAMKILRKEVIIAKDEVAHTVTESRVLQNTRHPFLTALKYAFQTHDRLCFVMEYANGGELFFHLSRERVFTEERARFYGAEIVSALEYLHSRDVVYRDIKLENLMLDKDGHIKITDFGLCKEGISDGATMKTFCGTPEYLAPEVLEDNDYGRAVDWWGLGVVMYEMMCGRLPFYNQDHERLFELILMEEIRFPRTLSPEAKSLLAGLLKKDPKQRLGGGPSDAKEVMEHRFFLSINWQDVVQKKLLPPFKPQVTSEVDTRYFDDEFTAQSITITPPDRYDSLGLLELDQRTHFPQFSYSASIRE

With `CO[C@@H]1[C@H](N(C)C(=O)CCC(=O)NCc2cn(CCCS(=O)(=O)[O-])nn2)C[C@H]2O[C@]1(C)n1c3ccccc3c3c4c(c5c6ccccc6n2c5c31)C(=O)NC4.[Na+]` [CIMSS] the “translocation of PtdS and Akt to the outer leaflet of the plasma membrane” value [1] was “did not block”, the cytotoxicity (HaCat cells [2]) was “little or no cytotoxicity” and the “IC50 for PDPK1 compared with staurosporine” value (PDPK1) was “comparable”. For the same compound, the IC50 (PDPK1; in vitro kinase activity, read-out: Compound IC50, PDPK1) was 0.278 nM, the inhibition at 10 µM (PDPK1; read-out: inhibition of PDPK1) was > 75% and the “Recover %, PAMPA” value [3] was 83%. The “nuclear transport of VP-16” value (HSV-2(G) [4]) was “inhibited”, the cytotoxicity [5] was “little or no cytotoxicity” and the “Recover %, MDCK Transport” value (MDCK-MDR1 cells) was 96%. For the same compound, the “concentration without inhibition of intracellular Akt phosphorylation in response to insulin, relative to the parental drug” value [6] was 100-1000 fold, the “dose inhibiting intracellular Akt phosphorylation in response to insulin” value ([6]; HaCat, 10 μM insulin, permeabilized cells) was > 100 µM and the “pPDPK1 and pPLCγ signal by confocal microscopy” value (Akt, PDPK1, PLCγ; 15 and 30 minutes following viral infection) was “inhibited”. For the same compound, the “phosphorylation of PDPK1, PLCγ and Akt in the membrane fraction” value (Akt, PDPK1, PLCγ; 15 minutes of HSV exposure, biotinylation) was “reduced”, the “phosphorylation of PLSCR1 after VSV-S” value (PLSCR1 [7]) was “preserved” and the “extended Ca2+ release (first hour pi)” value (intracellular Ca2+) was “significant reduction”. The “initial Ca2+ transient (first three minutes following HSV exposure)” value (intracellular Ca2+) was “did not block”, the IC50 (AKT2; in vitro kinase activity, read-out: Compound IC50, AKT2) was 1000 nM and the inhibition at 10 µM (AKT2; read-out: inhibition of Akt2) was > 75%. The “viral plaque formation, synchronized infection” value (HSV-2(G) [8]) was “significant reduction”, the “lowest concentration significantly inhibiting HaCat cell growth” value (HaCat cells [9]; 24 h) was “no significant inhibition” and the “lowest concentration significantly inhibiting HaCat cell growth” value (HaCat cells [9]; 72 h) was 100 µM. For the same compound, the “fold less effective than staurosporine (IC50), Akt1” value (AKT1) was ~230 fold, the IC50 (AKT1; in vitro kinase activity, read-out: Compound IC50, AKT1) was 461 nM and the inhibition at 10 µM (AKT1; read-out: inhibition of Akt1) was > 75%. For the same compound, the “phosphorylation of PLSCR1 after HSV-2” value (PLSCR1 [10]) was “not”.
